In US6689764B1, “Treatment of angiogenesis dependent conditions with dextrin sulphate” (priority 1999, dated 2004):
“Also recorded” adds a separate entry of the source.

Tests used:
HUVEC cell line = experiment: TCS Biologicals Human Angiogenesis Model (tubule formation); assay type: cell-based
Procedure: The effect of sulphated dextrin on vessel formation of the HUVEC cell line was performed by the use of the TCS Biologicals Human Angiogenesis Model. The assay is supplied as a growing culture of the HUVEC cell line together with culture matrix and additional human cells present (the exact nature of the cells is not known) at the earliest stages of tubule formation in a 24-well format. The positive control reagent was a standard stock solution of VEGF and the negative control was Suramin. After removing the well seals, the cultures were examined for cell morphology to confirm their viability.
Growth medium was provided with the kit and was used to make up the sulphated dextrin at concentrations ranging from 0-1000 μg/ml. The existing medium was aspirated from the wells and replaced with medium containing the dextrin sulphate concentrations in a 0.5ml volume. This was placed at 37° C., in a 5% CO2 containing atmosphere. This was repeated on days 4, 7 and 9.
Between days 7-11 cultures were fixed by the enclosed fixative and stained with the mouse monoclonal anti-PECAM-1 antibody at a 1:4000 dilution (present in blocking buffer). 0.5ml of diluted antibody was added per well and incubated for 60 minutes at 37° C. The secondary antibody (goat anti-mouse lgG alkaline phosphatase conjugate) was diluted 1:500 in blocking buffer and added to the wells after washing for 60 minutes at 37° C. After washing the plate the substrate was prepared; BCIP/NBT tablets were dissolved in distilled water and added to the wells. Following incubation for 5-10 minutes the wells were washed and were imaged using the Leica Qwin image analysis software package.

[1] = test system: human placental blood vessels; experiment: Placental blood vessel in fibrin clot in vitro angiogenesis assay; assay type: cell-based; settings: 100 μg/ml; for new vessel formation compared to media alone: up to day 22
Procedure: Compounds were tested at a final concentration of 100 μg/ml. The degree of new vessel formation was quantified blind twice a week using a visual analog scale in which 0=no growth, 1=minimal new vessel formation, 2=significant new vessel formation, and 3=dense new vessel formation. An angiogenesis score was derived from each count by dividing the total score (i.e. the sum of all the wells) by the maximum possible score and then expressing the result as a percentage. This graph is representative of 3 experiments with a total of 20 wells/plate/experiment for each compound tested.
Blood vessels (approximately 1-2 mm diameter) were excised from the apical surface of human placentas within 6 h of an elective Caesarean birth. Use of the placentas for these studies were approved by the Ethics Committee of Hammersmith Hospitals Trust, London. The blood vessels were placed in Hank's balanced salt solution and cut into 1-2 mm fragments using fine dissecting forceps and iridectomy scissors. Residual clots were removed and the blood vessels then soaked in Hank's balanced salt solution.
The effect of each compound on new blood vessel formulation was determined by culturing the blood vessels within a fibrin clot in 24-well tissue culture plates. Thirty μl of bovine thrombin (50 NIH U/ml in 0.15 M sodium chloride) was added to each well followed by 1 ml/well of 3 mg/ml bovine fibrinogen in Medium 199. The thrombin and fibrinogen were rapidly mixed and a blood vessel fragment placed in the centre of the well. Fibrin gel formation occurred rapidly and left the vessel suspended within the gel. One ml/well of Medium 199 supplemented with 20% foetal calf serum, 250 IU/ml penicillin and 250 U/ml streptomycin was then added to each well. ε-arnino-n-caproic acid was also added (300 μg/ml) for the first 4 days and twice weekly thereafter (50 μg/ml) in order to prevent dissolution of the fibrin clot. The vessels were cultured at 37° C. in a humidified incubator for 25 days with the media being changed twice weekly.
The degree of new vessel formation was quantified blind twice a week by three different observers using a visual analogue scale in which 0=no growth, 1=very little new vessel formation, 2=significant new vessel formation and 3=dense new vessel formation. An angiogenesis score was derived from the counts undertaken for each well by dividing the total score by the maximum score possible and then expressing the result as a percentage. On each of 3 separate occasions, each compound was tested in 20 replicate wells. […] Some of the fibrin clots were fixed overnight in 10% formalin, paraffin embedded, sectioned for histology and then stained for the endothelial cell markers Factor VIII and CD31. Results are expressed as the mean±sem. A students t-test was used to determine the level of significance.

[2] = test system: human umbilical vein endothelial cells; experiment: Endothelial microtubule formation assay on Matrigel; assay type: cell-based; settings: HUVEC on Matrigel, scored at 18 h
Procedure: FIG. 6: The photomicrographs show endothelial microtubule formation in the presence of sulphated dextrins (×40 magnification). A visual analogue scale was used to determine the extent of tube formation and scored on a scale from 0 (all cells remain single) to 4 (all cells involved in tubular structures) as previously described (ref: 1,14). Space bar=100 microns.
The endothelial microtuble formation assay was performed by isolating human umbilical vein endothelial cells from umbilical cords within 6 h of delivery by caesarean section. The umbilical vein was cannulated and 0.1% collagenase in phosphate buffered saline was introduced and incubated for 20 minutes. The endothelial cells liberated by the collagenase were obtained by washing the umbilical vein with Medium 199. The cells were washed three times with Medium 199 and then cultured in tissue culture flasks coated with fibronectin. […]
Aliquots of Matrigel were dispensed into 35 mm diameter tissue culture dishes on ice and then incubated at 37° C. for 10 min to allow the gel to set. […] At various time points from 8-24 hours, the plates were examined and scored using a published scheme from 0-4, where 0=all adherent cells remain single, and 4=all adherent cells involved in tubular structures. New vessel formation was quantified blind by three different observers at 18 h. […]

HIV-1 = settings: intra-peritoneal route, patients with late stage AIDS
Kaposi's sarcoma = experiment: Phase I clinical trial in patients with late stage AIDS: Kaposi's sarcoma; assay type: in vivo, human
[3] = Accumulation in cells of the peritoneal cavity and peripheral blood of treated patients; assay type: in vivo, human
HPB-ALL cells = experiment: [3H]-dextrin 2-sulphate binding to HPB-ALL cells
KSY-1 cell line = experiment: Proliferation with bFGF or VEGF, [3H]-thymidine incorporation; assay type: cell-based, human
HUVECs = experiment: Proliferation induced by bFGF or VEGF, [3H]-thymidine incorporation; assay type: cell-based, human; settings: 100 μg/ml, bFGF 10 ng/ml or VEGF 20 ng/ml
Procedure: FIG. 3: Graph to show the effect of sulphated dextrins on the proliferation of HUVECs induced by bFGF or VEGF was measured using a [^3H]-thymidine incorporation assay.
For these experiments, HUVECs (5×10^3/well) were suspended in Medium M199 containing 10% FCS, 2 mM L-glutamine, 100 Iu/ml penicillin and 0.1 mg/ml streptomycin. After 24 h, the media was replaced with fresh media containing either D2S (100 μg/ml) or D6S (100 μg/ml) for 1 h following which either bFGF (10 ng/ml) or VEGF (20 ng/ml, Preprotech, Rocky Hill, N.J.) were added. […] [^3H]-thymidine (1 mCi/ml, Amersham Pharrnacia, Bucks, UK) was added 48 h later and the cells cultured for a further 16 h. Cells were harvested using an automated Betaplate 96 well harvester (Wallac Oy, Turku, Finland) and the radioactivity counted using a Betaplate liquid scintillation counter.

[4] = test system: peripheral blood mononuclear cells and monocyte-derived-macrophages; experiment: D2S cell surface binding to peripheral blood mononuclear cells and monocyte-derived-macrophages; settings: PBMC and monocyte-derived-macrophages, read-out: dissociation constant
Procedure: Our previous studies of peripheral blood mononuclear cells and monocyte-derived-macrophages have shown that D2S binds to the cell surface in a specific and saturable manner with a dissociation constant of 82±14 nM.

HeLa cells = experiment: [3H]-dextrin 2-sulphate binding to HeLa cells; settings: n=9

Procedure for HUVEC's: (§1) Human umbilical vein endothelial cells (HUVEC's) were also harvested from umbilical cords by digestion with collagenase type II and cultured in 1% gelatin coated tissue culture flasks in Medium 199 supplemented with 20% fetal bovine serum, 100 IU/ml penicillin, 0.1 mg/ml streptomycin, 2mM L-glutamine, 10 U/ml heparin and 20 μg/ml endothelial cell growth supplement. The KS Y-1 cell line which was established from the pleural effusion of a patient with AIDS-associated Kaposi's sarcoma was also studied. It was CD34 and CD31 positive confirming it as being of endothelial origin.
(§2) The effect of sulphated dextrins on the growth of HUVEC's and KSY-1 cells which were being cultured in the presence of basic fibroblast growth factor (bFGF) or vascular endothelial growth factor (VEGF) was also determined.
Procedure for KSY-1 cells: as §1, §2

Compound: Cc1ccc(C(=O)Nc2ccc(S(=O)(=O)O)c3cc(S(=O)(=O)O)cc(S(=O)(=O)O)c23)cc1NC(=O)c1cccc(NC(=O)Nc2cccc(C(=O)Nc3cc(C(=O)Nc4ccc(S(=O)(=O)O)c5cc(S(=O)(=O)O)cc(S(=O)(=O)O)c45)ccc3C)c2)c1 [Suramin, reference compound]
- branch points, inhibition (HUVEC cell line; negative control reagent): 98%
- tubule number, inhibitory effect compared to vehicle control (HUVEC cell line; negative control reagent): 51%

Compound: VEGF
- branch points, elevation (HUVEC cell line; positive control reagent): 131%
- tubule number, elevation compared to vehicle control (HUVEC cell line; positive control reagent): 174%

Compound: dextrin
- cell viability (Trypan blue exclusion) (KSY-1 cells): > 95%
- rate of cell division (KSY-1 cells; KSY-1 cells, 7 day period, twice weekly cell counts): Neither dextrin nor sulphated dextrins affected
- cell viability (Trypan blue exclusion) (HUVEC's): > 95%
- rate of cell division (HUVEC's; HUVEC's, 7 day period, twice weekly cell counts): Neither dextrin nor sulphated dextrins affected
- new vessel formation compared to media alone [1]: no difference

Compound: dextrin 2,6-sulphate
- anti-angiogenic activity (microtubule formation) [2]: more than that seen with D2S but less than that seen with D6S

Compound: dextrin 2-sulphate
- viral load of HIV-1 (HIV-1): significant and sustained fall
- Kaposi's sarcoma clinical response (Kaposi's sarcoma): clinical regression of Kaposi's sarcoma in three patients
- accumulation in cells of treated patients [3]: accumulated in the peritoneal macrophages and mesothelial cells
- Bmax (HPB-ALL cells): 4.8±0.3 pmol/10^6 cells
- Kd (HPB-ALL cells; specific and saturable binding, read-out: dissociation constant (Kd)): 82 ± 14 nM
- effect on proliferation with bFGF or VEGF (KSY-1 cell line): do not interfere
- effect on proliferation induced by bFGF or VEGF (HUVECs): do not interfere
- effect on proliferation induced by bFGF or VEGF (HUVECs; listed as D2S): no significant effect
- Kd [4]: 82 ± 14 nM
- new blood vessel formation score (scale 0-3) ([1]; day 22): 1
- new vessel formation compared to media alone [1]: reduced the rate of new vessel formation; also recorded: significant reduction in the number of new vessels
- Bmax (HeLa cells): 4.1±0.2 pmol/10^6 cells
- Kd (HeLa cells): 107 ± 12 nM

Compound: dextrin 6-sulphate
- effect on proliferation with bFGF or VEGF (KSY-1 cell line): do not interfere
- effect on proliferation induced by bFGF or VEGF (HUVECs): do not interfere
- effect on proliferation induced by bFGF or VEGF (HUVECs; listed as D6S): no significant effect
- new vessel formation compared to media alone [1]: reduced the rate of new vessel formation
- new vessel formation compared to media alone ([1]; listed as Dextrin 6-sulphate): significant decrease in new vessel formation
